Test results: patent publication US10206900B2, “Treatments for fibrotic diseases” (MOR RESEARCH APPLICATIONS LTD., priority 2013, dated 2019)

What was measured:
aortic ring explants = experiment: Aortic ring assay ex vivo; settings: aortic ring explants in Matrigel, 1 μM, 8 days
Protocol: FIG. 15: TAK1 regulates the fibrotic switch in aortic injury ex vivo. aortic ring explants were seeded in Matrigel with or without 5z-7 (1 μM) for 8 days and then photo-documented. The photographs shown are representative from one of three independent experiments (N=9). As can been in the control aortic ring explants there is growth of sprouts due to the injury/fibrotic process.

[1] = tested on: TGF-β cascades in epithelial lung cells; experiment: Western blot of TGF-β cascades in A549 lung cells; format: cell-based; settings: 1 μM for 1 hour, TGF-β 2.5 ng/ml
Protocol: FIG. 14: Inhibition of TAK1 by 5z-7 abolishes the activation of TGF-β cascades in epithelial lung cells: Serum-starved A549 cells were pretreated with or without with 5Z-7-oxozeaenol (1 μM) for 1 hour and then with TGF-β (2.5 ng/ml) for the indicated times. Total protein extracts were analyzed by western blot using the indicated antibodies. […] Similarly, A549 lung cells were pretreated with or without with 5Z-7-oxozeaenol (1 μM) for 1 hour and then with TGF-β (2.5 ng/ml).

RPE cells [2] = experiment: Floating collagen matrix contraction assay in full serum; format: cell-based; settings: 1 μM, full medium, 24 hours, control cells 50%
Protocol: FIG. 5A: RPE cells were pre-treated with or without 5Z-7-oxozeaenol (1 μM) and seeded in collagen lattices in full medium. The experiments were performed in triplicates. Lattices were photo-documented after 24 hours and measured using Image-J software. […] Bars are Mean±SD. The transition of RPE cells to myofibroblasts is characterized, among other aspects, by increased contractile activity (Umazume et al., Invest Ophthalmol Vis Sci 2013, 54:1150-1159; Sakamoto et al., Curr Eye Res 1994, 13:451-459; West-Mays et al., Int J Biochem Cell Biol 2006, 38:1625-1631; Ma et al., Clinical & experimental ophthalmology 2012, 40:e76-86). To examine whether TAK1 is a general regulator of the EMT process affecting cell contractility, floating collagen matrix contraction assay was performed. The test was carried out in full serum with or without TAK1 inhibitor (FIGS. 5A and 5B). While in the control cells significant contraction was observed after 24 hours, reaching 50% of the initial size, TAK1 inhibition impaired the capacity of the cells to contract. The collagen lattice remained nearly 80% from the initial size (FIGS. 5A and B).

RPE cells [3] = experiment: Collagen lattice contraction upon TNFα stimulation; format: cell-based; settings: 1 μM before 50 ng/ml TNFα, 72 hours
Protocol: FIG. 9: TAK1 regulates RPE cells contraction upon TNFα stimulation. […] RPE cells were seeded in collagen lattices in serum starvation medium. The cells were pretreated with 1 μM 5Z-7 or 1 hour before adding 50 ng/ml TNFα. Lattice were photo-documented after 72 hours and measured using ImajeJ software. The transition of RPE cells to myofibroblasts is characterized, among other aspects, by increased contractile activity (Umazume et al., Invest Ophthalmol Vis Sci 2013, 54:1150-1159; Sakamoto et al., Curr Eye Res 1994, 13:451-459; West-Mays et al., Int J Biochem Cell Biol 2006, 38:1625-1631; Ma et al., Clinical & experimental ophthalmology 2012, 40:e76-86). To examine whether TAK1 is a general regulator of the EMT process affecting cell contractility, floating collagen matrix contraction assay was performed. The test was carried out in full serum with or without TAK1 inhibitor (FIGS. 5A and 5B). While in the control cells significant contraction was observed after 24 hours, reaching 50% of the initial size, TAK1 inhibition impaired the capacity of the cells to contract. The collagen lattice remained nearly 80% from the initial size (FIGS. 5A and B).

RPE cells [4] = experiment: In vitro scratch wound healing assay upon TNFα stimulation; format: cell-based; settings: 1 μM for 1 hour before 20 ng/ml TNFα, day 1 and 2
Protocol: FIG. 8A: Cell migration of RPE cells in in vitro scratch wound healing assay. RPE cells were treated with Mitomycin C for 3 hours. After the cells were treated with 1 μM 5Z-7 for 1 hour before adding 20 ng/ml TNFα and wounding on day 0. Photographs were taken at day 1 and 2, respectively, after the wound was made. FIG. 8B: Percentage of the gap size (*, P<0.05, t test); (**, P<0.01, t test). To further support the finding that TAK1 mediated EMT in RPE, we examined the migratory capacity of RPE cells, a well-known marker for EMT (Lee et al., J Cell Biol 2006, 172:973-981). Cell migration was tested by the scratch assay. The assay was performed on RPE cells pretreated or untreated with TAK1 inhibitor prior to stimulation with TGF-β1. […] At 24 hours, in the TGF-β1 treated culture, a major portion of the cells had already migrated into the wounded area, displaying almost complete wound closure at 48 hours.

MMP-9 = MMP-9 activity by gelatin zymography in RPE cell supernatants; format: cell-based; settings: RPE cells, pretreatment 1 μM, TGF-β1 2.5 ng/ml, 24 hours; TGF-β1 alone 3.2 fold
Protocol: FIGS. 2A-2C TAK1 regulates RPE cells EMT phenotype upon TGF-β stimulation. FIG. 2A: RPE cells were serum-starved for 16 hours, pretreated with 5Z-7-oxozeaenol (1 μM) or left untreated for 1 hour. The cells were then treated with TGF-β1 (2.5 ng/ml) as described herein for 24 h and immunostained with α-SMA antibodies (red) and DAPI (blue). Representative photographs of three independent experiments. The histogram in the bottom panel represents quantification of α-SMA antibody pixel intensity. FIG. 2B: RPE cells were serum-starved for 16 hours, then treated with mitomycin C (10 ng/ml) for 3 h. Thereafter, pretreated with 5Z-7-oxozeaenol (1 μM) or Dimethyl sulfoxide (DMSO) for 1 hour. Following this process a scratch was performed in the cell monolayer and the serum free medium was supplemented with TGF-β1 (2.5 ng/ml) or left unsupplemented. Scratches were photo-documented at the indicated times (top panel) and their width was measured using Image-J software. […] Bars are Mean±SD. FIG. 2C: RPE cells were serum-starved for 16 hours then pretreated with 5Z-7-oxozeaenol (1 μM) or SB431542 (10 μM), or DMSO for 1 hour. […] Total MMP-9 activities were processed by gelatin zymography (top panel) and the band intensity values were calculated by Quantity One® 1-D analysis software. […] Data is expressed as the Mean±SD.

How did the “fibrotic effect resultant from the injury process (sprout growth)” value (aortic ring explants) turn out when `COc1cc(O)c2c(c1)/C=C/C[C@H](O)[C@H](O)C(=O)/C=C\C[C@H](C)OC2=O` [5Z-7-oxozeaenol] was run?
The value was “abolish the fibrotic effect”.

What about the “fibrotic affect stimulated by TGF-β (western blot)” value [1] of the same compound?
Its value is “abolishes the fibrotic affect”.

What about the “collagen lattice area relative to initial size” value (RPE cells [2]) of the same compound?
The value was ~80%.

And the “collagen contraction after EMT stimulation by TNFα” value (RPE cells [3])?
The value was “significantly reduced collagen contraction”.

What about the “migration rates of RPE cells treated with TNFα” value (RPE cells [4]) of the same compound?
Its value is “inhibited the migration rates”.

What about the “MMP-9 activity, fold higher than the control group” value (MMP-9) of the same compound?
Its value is 1.59 fold.
